Some results are limits rather than exact numbers.

The results in this text go back to patent publication US10301294B2, “Compounds for the treatment of tuberculosis” (priority 2013, dated 2019).

For assay [1], the system named is carbon-starved M. tuberculosis H37Rv. Description: Non-replicating IC90 determination by luciferase (carbon-starved cells). The format is cell-based. The settings on record: luciferase; for IC99 / IC90: Mycobacterium tuberculosis, H37RV; for IC99: 120 h, read-out: Against carbon starved non-replicating Mtb IC99 (uM, luciferase); for IC99 / Against carbon starved non-replicating Mtb IC99 (uM, luciferase): None = inhibition did not reach 99%; for IC90: IC90 given in brackets beside IC99, read-out: Against carbon starved non-replicating Mtb IC90 (in brackets, luciferase).

Assay [2] relates to replicating M. tuberculosis H37Rv. Description: microbe, parasite or virus in culture. The settings on record: Mycobacterium tuberculosis, H37RV, None = inhibition did not reach 90%, read-out: Against Replicating Mtb IC90 (uM, GFP). The format is cell-based.

Usually IC99 stands for the point of the concentration-response curve where the effect stands at 99%. By IC90 is commonly meant the concentration at which the effect reaches the 90% level. Regarding `[N-]=[N+]=NCCOCCNC(=O)CCCOc1ccc(C[S+]([O-])c2nnc(-c3ccc(F)cc3)o2)nc1` (stereo not shown), the IC99 in assay [1] turned out to be 31 µM. Further, in assay [2], the IC90 came to 125 µM.
Take `Fc1ccc(-c2nnc(SCCN3CCCC(F)(F)C3)o2)cc1`: in assay [1], the IC99 is 250 µM and the IC90 amounted to 1 µM. Further, the IC90 in assay [2] turned out to be 250 µM.
For `Fc1ccc(-c2nnc(SCc3ccccn3)o2)cc1` [drawing 215], in assay [1], the IC99 was 62 µM. Besides, in assay [2], the IC90 was 31 µM.
Consider `[O-][S+](Cc1ccccn1)c1nnc(-c2ccc(F)cc2)o1` (stereo not shown), for which the IC90 in assay [2] was 31 µM.
For `C#CCOc1ccc(-c2nnc([S+]([O-])Cc3ccccn3)o2)cc1` (stereo not shown), in assay [1], the IC99 is 31 µM. Moreover, the IC90 in assay [2] came out at 31 µM.
Consider `Brc1cccc(-c2nnc(SCc3ccccn3)o2)c1` [drawing 217], for which the concentration for an effect of 99% (IC99) in assay [1] was determined as 31 µM. Moreover, the IC90 in assay [2] worked out at 62 µM.
The matching figures for `[N-]=[N+]=NCCCOc1ccc(C[S+]([O-])c2nnc(-c3ccc(F)cc3)o2)nc1` (stereo not shown): 4 µM and 31 µM.
As to `Oc1ccc(-c2nnc(SCc3ccccn3)o2)cc1`, in assay [1], the IC99 was determined as 62 µM. Besides, the concentration for an effect of 90% (IC90) in assay [2] stood at 125 µM.
For `Clc1ccc(-c2nnc(NCc3ccccn3)o2)cc1`, the IC99 in assay [1] came out at 125 µM. Further, the IC90 in assay [2] is 500 µM.
The matching figures for `[N-]=[N+]=NCCOCCNC(=O)CCCOc1ccc(C[S+]([O-])c2nnc(-c3ccc(Cl)cc3)o2)nc1` (stereo not shown) [drawing 240]: 16 µM and 250 µM.
The matching figures for `CCCCCCCCCCCCSc1nnc(-c2ccccc2)o1`: 62 µM and 125 µM.
As to `CC(C)(C)c1ccc(CSc2nnc(-c3ccc(Cl)cc3)o2)cc1`, the IC99 in assay [1] came out at 62 µM. In assay [2], the IC90 was found to be 250 µM.
The matching figures for `Clc1ccc(-c2nnc(SCCC3OCCCO3)o2)cc1`: 8 µM and 62 µM.
The matching figures for `C#CCCCOc1ccc(C[S+]([O-])c2nnc(-c3ccc(F)cc3)o2)nc1` (stereo not shown): 31 µM and 31 µM.
The matching figures for `[O-][S+](Cc1ccccn1)c1nnc(-c2ccc(Cl)cc2)o1` (stereo not shown) [drawing 195]: 4 µM and 31 µM.
Regarding `c1ccc(-c2nnc(SC3CCCCC3)o2)cc1` [drawing 181], the IC99 in assay [1] is 62 µM. Besides, the IC90 in assay [2] is above 500 µM.
The matching figures for `COCCOc1nnc(-c2ccc(Cl)cc2)o1`: 250 µM and above 500 µM.
On to `Fc1ccc(CCSc2nnc(-c3ccccc3)o2)cc1`, for which the IC99 in assay [1] was 250 µM. Further, the IC90 in assay [2] worked out at 250 µM.
For the molecule `CS(=O)(=O)c1nnc(-c2ccc(Cl)cc2)o1`, in assay [1], the IC99 was 8 µM. Further, in assay [2], the IC90 was 125 µM.
As to `Fc1ccc(CSc2nnc(-c3ccccc3)o2)cc1` [drawing 172], the “Against carbon starved non-replicating Mtb IC99 (uM, luciferase)” value in assay [1] is listed as “None”. In assay [2], the IC90 amounted to 125 µM.
As for `CCSc1nnc(-c2ccccc2)o1`, the IC99 in assay [1] was determined as 250 µM. In addition, the concentration for an effect of 90% (IC90) in assay [2] was found to be 200 µM.
Consider `Fc1ccc(-c2nnc(SCCN3CCN(c4ccccc4)CC3)o2)cc1`, for which, in assay [1], the IC90 was found to be 4 µM and the “Against carbon starved non-replicating Mtb IC99 (uM, luciferase)” value is given as “None”. The IC90 in assay [2] stood at 250 µM.
For the molecule `Cc1cccc(CSc2nnc(-c3ccc(Cl)cc3)o2)n1`, the concentration for an effect of 99% (IC99) in assay [1] amounted to 31 µM. For the same molecule, the IC90 in assay [2] was 62 µM.
The matching figures for `COc1cccc(-c2nnc(SCc3ccccn3)o2)c1` [drawing 227]: 16 µM and 62 µM.
The matching figures for `[O-][S+](Cc1cn(Cc2ccccc2)nn1)c1nnc(-c2ccc(Cl)cc2)o1` (stereo not shown) [drawing 223]: 8 µM and 62 µM.
The matching figures for `C#CCCCOc1ccc(CSc2nnc(-c3ccc(F)cc3)o2)nc1`: 16 µM and 31 µM.
`COc1ccc(CSc2nnc(-c3ccc(F)cc3)o2)nc1`: in assay [2], the concentration for an effect of 90% (IC90) lay within 16 to 31 µM.
On the same count and under the same terms, as for `COc1ccc(C[S+]([O-])c2nnc(-c3ccc(F)cc3)o2)nc1` (stereo not shown), the figure is 31 µM.
